The source of these data is patent US11318077B2, “Retinaldehyde containing compositions and methods of use” (RODAN & FIELDS, LLC, priority 2017, dated 2022).

Structures are written as SMILES. “And” between values parts separate entries of the source, which are not always exact repeats. Equal entries are not always repeated.

Experiment [1] relates to Retinoic Acid Response Element (RARE) transcription factor pathway. Put plainly: Cignal RARE Reporter Assay (firefly luciferase) in HEK293 cells. In kind it is cell-based. To be noted: for RARE-mediated firefly luciferase expression, % control / RARE-mediated firefly luciferase expression, Fold increase: 24 h, vs water; for Activity in RARE reporter assay: tested concentrations. From the text:
Objective: Retinoic Acid Receptor (RAR) controls gene transcription by binding to Retinoid Acid Response Elements (RAREs) in DNA. This process is modulated by all trans retinoic acid (ATRA)—a compound with well-established anti-aging skin benefits. […] Cignal RARE Reporter Assay® is designed to screen for such compounds using cell cultures. The objective of this project was to test 6 compounds (retinoic acid (ATRA), retinol, vitamin A palmitate, retinal, 10% w/w Near-1 in dimethylisosorbide, and 10% w/w retinoid ester in dimethylisosorbide) for the ability to activate RARE in this Cignal RARE Reporter Assay model.
Materials & Methods: The experiments were performed using HEK293 cells (Sigma, St. Louis, Mo.; cat. #85120602) seeded at 50,000 per well in a 96 well black-wall tissue culture plate. Cells were transfected by mixing Cignal Reporter Assay firefly/renilla luciferase constructs (cat. #CCS-016L; Qiagen) with Attractene Transfection Reagent (Qiagen) in Opti-MEM supplemented with 1% MEM Non-essential amino acid solution without L-glutamine. After medium change test materials were added and their effect on RARE induction was quantified 24 h later with the Dual-Luciferase Reporter Assay System (cat. #E1960; Promega).

In experiment [2] the test system is Retinoid X receptor (RXR) transcription factor pathway. The experiment is described as follows: Cignal RXR Reporter Assay (firefly luciferase) in HEK293 cells. In kind it is cell-based. Conditions: for RXR activation (% control): 24 h, vs water; for Activity in RXR reporter assay: tested concentrations. From the text:
Objective: Retinoid X receptors (RXRs) are one class of nuclear receptors through which retinoids mediate their biological effects. These receptors function as transcription factors by binding as heterodimers to specific sequences in the promoters of target genes. The protein encoded by this gene is a member of the steroid and thyroid hormone receptor superfamily of transcriptional regulators. One of its ligands is all trans retinoic acid (ATRA)—a compound with well-established anti-aging skin benefits. […] Cignal RXR Reporter Assay® is designed to screen for such compounds (retinoic acid (ATRA), retinal, 10% w/w Near-1 in dimethylisosorbide, and 10% w/w retinoid ester in dimethylisosorbide) using cell cultures. The objective of this project was to test four compounds for the ability to activate RXR in this Cignal RXR Reporter Assay model.
The experiments were performed using HEK293 cells (Sigma, St. Louis, Mo.; cat. #85120602) seeded at 50,000 per well in a 96 well black-wall tissue culture plate. Cells were transfected by mixing Cignal RXR Reporter Assay firefly/renilla luciferase constructs (cat. #CCS9044L; Qiagen) with Attractene Transfection Reagent (Qiagen) in Opti-MEM supplemented with 1% MEM Non-essential amino acid solution without Lglutamine. After medium change test materials were added and their effect on RXR induction was quantified 24 h later with the Dual-Luciferase Reporter Assay System (cat. #E1960; Promega).
RXR is a mixture of an inducible retinoid X receptor—responsive firefly luciferase construct and a constitutively expressing Renilla construct, which acts as an internal control for normalizing transfection efficiencies and monitoring cell viability. Signal quantification was obtained with ThermoFisher Scientific Luminoskan Ascent Microplate Luminometer.
(In general: A reporter such as luciferase makes a cellular process visible.)

`CCCCCCCCCCCCCCCC(=O)OC/C=C(C)/C=C/C=C(C)/C=C/C1=C(C)CCCC1(C)C` [Vit A Palmitate, vitamin A palmitate]: the “RARE-mediated firefly luciferase expression, % control” value in experiment [1] (1 μM) was 75 % control and 76 % control; in experiment [1] (5 μM), 77 % control and 73 % control; in experiment [1] (10 μM), 86 % control and 67 % control. The “RARE-mediated firefly luciferase expression, Fold increase” value in experiment [1] (1 μM) is 0.7 and 0.8; in experiment [1] (5 μM), 0.8 and 0.7; in experiment [1] (10 μM), 0.9 and 0.7. In addition, the “Activity in RARE reporter assay” value in experiment [1] is on record as “All test materials except Vit-A-Pal were active”.

Turning to `CC1=C(/C=C/C(C)=C/C=C/C(C)=C/CO)C(C)(C)CCC1` [Retinol, retinol], the “RARE-mediated firefly luciferase expression, % control” value was 138 % control and 150 % control in experiment [1] (1 μM); 268 % control and 253 % control in experiment [1] (5 μM); 278 % control and 294 % control in experiment [1] (10 μM). Besides, the “RARE-mediated firefly luciferase expression, Fold increase” value in experiment [1] (1 μM) was 1.4 and 1.5; in experiment [1] (5 μM), 2.7 and 2.5; in experiment [1] (10 μM), 2.8 and 2.9.

For `CC1=C(/C=C/C(C)=C/C=C/C(C)=C/C(=O)O)C(C)(C)CCC1` [ATRA, all trans retinoic acid], the “RARE-mediated firefly luciferase expression, % control” value was 775 % control and 1099 % control in experiment [1] (0.2 μM); 1054 % control and 1284 % control in experiment [1] (1 μM); 973 % control in experiment [1] (5 μM). The “RARE-mediated firefly luciferase expression, Fold increase” value is 7.8 and 11.0 in experiment [1] (0.2 μM); 10.5 and 12.8 in experiment [1] (1 μM); 9.7 in experiment [1] (5 μM). For the same compound, the “RXR activation (% control)” value is given as 201 % control in experiment [2] (0.2 μM), 340 % control in experiment [2] (1 μM) and 437 % control in experiment [2] (5 μM). In addition, in experiment [2], the “Activity in RXR reporter assay” value is recorded as “best performers”.

As to `CC1=C(/C=C/C(C)=C/C=C/C(C)=C/C=O)C(C)(C)CCC1` [Retinal, retinaldehyde], the “RARE-mediated firefly luciferase expression, % control” value in experiment [1] (1 μM) stood at 613 % control; in experiment [1] (5 μM), 1005 % control; in experiment [1] (10 μM), 946 % control. Further, the “RARE-mediated firefly luciferase expression, Fold increase” value in experiment [1] (1 μM) was 6.1; in experiment [1] (5 μM) it was 10.0; in experiment [1] (10 μM) it was 9.5. The “times less effective than retinoic acid in modulating the RARE pathway” value in experiment [1] (at 1 uM) was 1.7 times. In experiment [1] (at 5 uM), the “effectiveness vs retinoic acid in modulating the RARE pathway” value is listed as “equivalent to retinoic acid”. For the same compound, the “Activity in RARE reporter assay” value in experiment [1] is “best performer”. In addition, the “RXR activation (% control)” value is recorded as 131 % control in experiment [2] (1 μM), 181 % control in experiment [2] (5 μM) and 279 % control in experiment [2] (10 μM). In experiment [2] (at 5 uM), the “times less effective in modulating RXR pathway in comparison to retinoic acid” value came to 2.4 times. In addition, the “Activity in RXR reporter assay” value in experiment [2] was “best performers”.
